The source made the active and inactive calls.
What was measured:
[1] = lymphoblastoid cell cytotoxicity, dose response, cytotoxicity control, plate reader, dry powder, set 2 (AID 624367); type: functional
Paired box protein Pax-8 = Paired box protein Pax-8 (Homo sapiens, UniProt Q06710); assay: inhibitors of PAX8-driven TPO luciferase reporter, dose response, RMG-I cells, cherry-pick (AID 687027); type: functional, cell-based;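 note: luciferase reporter driven by Pax8 target thyroperoxidase promoter measured by SteadyGlo luminescence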
[2] = NIH:OVCAR-3 ovarian cancer cell cytotoxicity, dose response, PAX8 inhibitor project, plate reader, dry powder samples (AID 743044); type: functional, cell-based
[3] = cytotoxicity in OVCAR8 ovarian cancer cells, dose response, PAX8 project, cell-based, plate reader, dry powder samples (AID 743197); type: functional; conditions: OVCAR-8
Protein Wnt-3a = Protein Wnt-3a (Mus musculus, UniProt P27467); assay: SAR analysis of small molecule antagonists of Gli-SUFU in a Wnt3a luminescent reporter assay.; type: functional
Hexokinase HKDC1 = molecular target: T1, Hexokinase HKDC1 (Homo sapiens, UniProt Q2TB90); assay: HKDC1 hexokinase inhibitors, dose response, biochemical, W721R variant (AID 504729); type: functional
T1 sequence (Q2TB90 whole entry): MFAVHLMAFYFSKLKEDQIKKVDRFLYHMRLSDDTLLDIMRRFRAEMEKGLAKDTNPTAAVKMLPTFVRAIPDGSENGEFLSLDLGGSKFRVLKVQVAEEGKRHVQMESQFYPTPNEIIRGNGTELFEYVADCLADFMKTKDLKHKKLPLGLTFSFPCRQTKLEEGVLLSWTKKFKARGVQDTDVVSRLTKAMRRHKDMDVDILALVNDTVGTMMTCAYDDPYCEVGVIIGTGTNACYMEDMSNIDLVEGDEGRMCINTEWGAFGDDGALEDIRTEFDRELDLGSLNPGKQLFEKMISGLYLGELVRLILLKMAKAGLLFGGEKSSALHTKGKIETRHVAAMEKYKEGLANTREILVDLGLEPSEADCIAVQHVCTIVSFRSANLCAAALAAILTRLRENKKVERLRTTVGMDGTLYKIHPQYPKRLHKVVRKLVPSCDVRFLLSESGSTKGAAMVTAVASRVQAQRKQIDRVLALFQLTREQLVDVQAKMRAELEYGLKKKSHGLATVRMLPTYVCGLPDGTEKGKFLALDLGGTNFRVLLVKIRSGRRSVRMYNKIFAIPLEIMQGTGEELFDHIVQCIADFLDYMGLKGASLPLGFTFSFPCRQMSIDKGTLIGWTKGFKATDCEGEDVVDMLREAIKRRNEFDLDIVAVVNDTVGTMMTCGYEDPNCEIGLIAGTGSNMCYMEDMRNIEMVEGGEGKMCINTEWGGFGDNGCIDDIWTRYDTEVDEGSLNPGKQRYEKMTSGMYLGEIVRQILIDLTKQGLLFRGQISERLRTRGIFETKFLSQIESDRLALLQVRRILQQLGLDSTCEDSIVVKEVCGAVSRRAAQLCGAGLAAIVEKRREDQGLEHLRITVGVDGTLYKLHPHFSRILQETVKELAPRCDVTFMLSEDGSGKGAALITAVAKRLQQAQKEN

[4] = molecular target: T2, Polyadenylate-binding protein 1 (Homo sapiens, UniProt P11940); assay: PABP1 MLLE–PAM2 interaction inhibitors, dose response, miRNA deadenylation inhibitor project, biochemical, fluorescence polarization, Cy5-PAM2 peptide, secondary (AID 602260); type: functional; conditions: read-out: IC50_Mean
[5] = molecular target: T2, Polyadenylate-binding protein 1; assay: PABP1 MLLE–PAM2 binding inhibitor potency, dose response, biochemical, fluorescence polarization, FITC-PAM2 peptide (AID 602259); type: functional; conditions: read-out: IC50_Mean
[6] = molecular target: Photoreceptor-specific nuclear receptor (Homo sapiens, UniProt Q9Y5X4); type: functional, cell-based;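 note: CHO-S cells with Gal4-NCOR and VP16-NR2E3 two-hybrid luciferase reporter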
[7] = molecular target: T3, Histone-lysine N-methyltransferase NSD2 (Homo sapiens, UniProt O96028); type: biochemical
T3 sequence (O96028 whole entry): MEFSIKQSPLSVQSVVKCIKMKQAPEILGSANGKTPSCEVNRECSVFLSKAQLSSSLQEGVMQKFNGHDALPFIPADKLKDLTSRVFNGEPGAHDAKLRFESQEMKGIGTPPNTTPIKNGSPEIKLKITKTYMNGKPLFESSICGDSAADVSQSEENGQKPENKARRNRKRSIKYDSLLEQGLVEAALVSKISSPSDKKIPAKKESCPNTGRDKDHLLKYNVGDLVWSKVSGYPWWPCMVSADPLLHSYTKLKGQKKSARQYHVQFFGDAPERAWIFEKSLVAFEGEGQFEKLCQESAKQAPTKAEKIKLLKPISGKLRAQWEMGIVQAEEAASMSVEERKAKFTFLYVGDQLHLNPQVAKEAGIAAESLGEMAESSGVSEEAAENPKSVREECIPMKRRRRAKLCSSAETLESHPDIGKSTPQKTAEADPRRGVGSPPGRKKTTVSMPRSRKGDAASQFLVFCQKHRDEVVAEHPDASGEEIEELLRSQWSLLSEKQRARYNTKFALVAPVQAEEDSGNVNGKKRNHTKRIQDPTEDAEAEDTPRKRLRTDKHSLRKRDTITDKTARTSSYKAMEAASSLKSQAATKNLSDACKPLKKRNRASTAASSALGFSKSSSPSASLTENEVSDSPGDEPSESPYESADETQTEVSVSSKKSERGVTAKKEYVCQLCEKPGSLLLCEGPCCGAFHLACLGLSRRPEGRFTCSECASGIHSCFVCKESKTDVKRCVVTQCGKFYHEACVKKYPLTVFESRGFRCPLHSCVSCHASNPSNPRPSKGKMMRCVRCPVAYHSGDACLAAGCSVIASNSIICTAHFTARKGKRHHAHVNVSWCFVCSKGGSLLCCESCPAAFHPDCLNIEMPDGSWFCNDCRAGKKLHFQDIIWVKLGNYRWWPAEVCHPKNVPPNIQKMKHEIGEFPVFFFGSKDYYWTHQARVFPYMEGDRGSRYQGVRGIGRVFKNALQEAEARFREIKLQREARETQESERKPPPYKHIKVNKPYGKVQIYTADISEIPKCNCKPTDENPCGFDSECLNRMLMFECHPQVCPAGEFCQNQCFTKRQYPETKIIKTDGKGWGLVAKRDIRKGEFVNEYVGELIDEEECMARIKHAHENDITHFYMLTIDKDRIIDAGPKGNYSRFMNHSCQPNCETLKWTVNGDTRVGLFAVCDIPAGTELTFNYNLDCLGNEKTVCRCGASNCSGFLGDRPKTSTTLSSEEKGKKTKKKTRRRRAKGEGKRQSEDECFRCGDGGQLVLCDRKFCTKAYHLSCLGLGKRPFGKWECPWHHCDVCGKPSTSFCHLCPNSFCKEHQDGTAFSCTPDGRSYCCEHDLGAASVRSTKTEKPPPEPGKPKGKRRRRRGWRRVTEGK

[8] = molecular target: Tyrosyl-DNA phosphodiesterase 2 (Homo sapiens, UniProt O95551); assay: human TDP2 enzyme inhibitors, dose response, biochemical, epi absorbance, IC50 (AID 743297)
[9] = non-specific cell cytotoxicity, dose response, cytotoxicity control for PAX8 inhibitor project, plate reader, dry powder samples (AID 743021); type: functional, cell-based
Galanin receptor type 3 = Galanin receptor type 3 (Homo sapiens, UniProt O60755); assay: Fluorescence-based cell-based primary high throughput dose response assay to identify antagonists of the Galanin Receptor 3 (GalR3).; type: functional
cells [10] = type: functional, cell-based; conditions: HEK-CNG
[11] = inhibitors of HIV Env-driven cell fusion, dose response, cherry-pick (AID 652057); type: functional, cell-based
[12] = CEM21 lymphoblast cell cytotoxicity, dose response, cytotoxicity control for viral fusion inhibitor project, CellTiter-Glo luminescence, cherry-picked (AID 652042); type: functional, cell-based;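 note: potency for signal decrease meaning cytotoxicity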
[13] = inhibitors of clade B AD8 Env fusion, dose response, cell-based, cherry-pick (AID 652062); type: functional;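 note: luciferase signal from cell-cell fusion driven by HIV-1 clade B AD8 Env; potency is for inhibitors of fusion seen as a drop in luminescence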
cells [14] = type: functional, cell-based
[15] = molecular target: T4, Nuclear receptor subfamily 0 group B member 1 (Homo sapiens, UniProt P51843); type: functional, cell-based;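 note: HEK293T cells transfected with SF-1 and DAX-1 plus StAR promoter luciferase reporter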
T4 sequence (P51843 whole entry): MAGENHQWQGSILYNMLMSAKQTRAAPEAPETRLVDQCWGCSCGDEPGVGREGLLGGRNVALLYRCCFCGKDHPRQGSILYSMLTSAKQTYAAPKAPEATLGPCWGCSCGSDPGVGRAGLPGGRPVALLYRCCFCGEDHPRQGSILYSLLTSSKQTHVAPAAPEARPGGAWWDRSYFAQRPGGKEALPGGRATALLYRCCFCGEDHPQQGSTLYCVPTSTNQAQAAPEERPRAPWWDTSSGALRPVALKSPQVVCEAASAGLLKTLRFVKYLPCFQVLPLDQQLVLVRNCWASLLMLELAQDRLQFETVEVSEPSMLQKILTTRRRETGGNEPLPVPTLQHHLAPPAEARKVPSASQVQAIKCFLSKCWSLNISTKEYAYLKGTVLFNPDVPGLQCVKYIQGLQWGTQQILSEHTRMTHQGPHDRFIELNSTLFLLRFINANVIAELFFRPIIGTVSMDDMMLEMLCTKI

Major prion protein = Major prion protein (Homo sapiens, UniProt P04156); type: functional, cell-based
cells [16] = assay: cells
Albumin = Albumin (Bos taurus, UniProt P02769); assay: Counterscreen for inhibitors of T-cell receptor (TCR)-CD3 interaction: Fluorescence-based biochemical high throughput dose response assay to identify inhibitors of T-cell receptor (TCR)-CD3 interaction using a TAMRA-labeled BSA probe.; type: functional
Caspase-6 = molecular target: T5, Caspase-6 (Homo sapiens, UniProt P55212); assay: human caspase-6 inhibitors, dose response, biochemical, VEID-R110 fluorescence, cherry-pick (AID 720632)
T5 sequence (P55212 whole entry): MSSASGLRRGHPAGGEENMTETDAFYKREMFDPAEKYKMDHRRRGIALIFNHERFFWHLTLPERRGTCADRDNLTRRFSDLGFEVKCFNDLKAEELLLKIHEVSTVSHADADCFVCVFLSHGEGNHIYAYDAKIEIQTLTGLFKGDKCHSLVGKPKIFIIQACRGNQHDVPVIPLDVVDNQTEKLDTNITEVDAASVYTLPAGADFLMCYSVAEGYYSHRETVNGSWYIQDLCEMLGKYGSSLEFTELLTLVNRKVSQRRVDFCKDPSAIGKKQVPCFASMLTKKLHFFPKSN

Caspase-7 = Caspase-7 (Homo sapiens, UniProt P55210); assay: human caspase-7 inhibitors, dose response, selectivity assay for caspase-6 inhibitor project, biochemical, DEVD-R110 fluorescence, cherry-pick (AID 743295)
A549 = assay: A549 cell toxicity, dose response, cytotoxicity control, plate reader, cherry-pick samples (AID 687028); type: functional, cell-based; conditions: Homo sapiens
[17] = A549 cell cytotoxicity, dose response, cytotoxicity control, plate reader, cherry-pick, antagonist series (AID 743412); type: functional, cell-based
[18] = HepG2 cell cytotoxicity, dose response, cytotoxicity control, plate reader, cherry-pick, antagonist series (AID 743416); type: functional, cell-based
[19] = LGR2 antagonists, dose response, cell-based, HEK293, CRE-luciferase reporter, cherry pick, set 2 (AID 743343); type: functional;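 note: transfected cells were stimulated with diluted bursicon conditioned medium after compound addition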
[20] = MC4R antagonists, dose response, counter-screen for LGR2 antagonist project, cell-based, plate reader, cherry pick (AID 743444); type: functional;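 note: transfected HEK 293 cells stimulated with alpha-MSH peptide; potency of inhibitors of the alpha-MSH evoked signal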
[21] = HEK293 cell cytotoxicity, dose response, cytotoxicity control, plate reader, cherry-picked samples (AID 743446); type: functional, cell-based
cells [22] = type: functional, cell-based; remark: listed apart in the source
[23] = molecular target: T6, Trace amine-associated receptor 1 (Homo sapiens, UniProt Q96RJ0); assay: Fluorescence-based cell-based high throughput dose response assay to identify agonists of the human trace amine associated receptor 1 (TAAR1).; type: functional
[24] = molecular target: T6, Trace amine-associated receptor 1; assay: Counterscreen for agonists of the human trace amine associated receptor 1 (hTAAR1): Fluorescence-based cell-based high throughput dose response assay to identify hTAAR1 agonist that also desensitize TAAR1 receptor response.; type: functional
cells [25] = type: functional, cell-based; remark: listed apart in the source

O=C(Nc1ccc(C(F)(F)F)cc1)Nc1ccc2c(c1)[C@H]1C[C@@H](CC(=O)N3CCc4ccccc4C3)O[C@@H](CO)[C@H]1O2
AbsAC35 [1]: 44.28 µM | AC50 (Paired box protein Pax-8): 10.7 µM (active) | AC50 [2]: 63.1 µM (active) | AC50 [3]: > 70 µM (inactive)

O=C(Nc1cc(N2CCCC2)ncn1)c1ccccc1
IC50 (Protein Wnt-3a): > 21.8 µM (inactive)

NC1=C(Br)C(=O)c2ncccc2C1=O
IC50 (Hexokinase HKDC1): 8.91 µM (active) | IC50 [4]: > 66 µM (inactive) | IC50 [5]: > 66 µM (inactive) | IC50 [6]: 2.48 µM (active) | AC50 (Paired box protein Pax-8): 1.22 µM (active) | AC50 [7]: 0.164 µM (active) | IC50 [8]: 2.66 µM (active) | AC50 [9]: 10.1 µM (active)

CCCCCC(O)C=CC1C(O)CC(O)C1CC=CCCCC(=O)O (stereo unspecified)
IC50 (Galanin receptor type 3): > 0.123 µM (active) | EC50 (cells [10]): > 29.9 µM (inactive)

COc1ccc2c3c([nH]c2c1)[C@H](CO)N(C(=O)Nc1cccc(F)c1)CC31CN(S(=O)(=O)c2cccc(C)c2)C1
AC50 [11]: 27.7 µM (active) | AC50 [12]: 27.5 µM (active) | AC50 [13]: 38.1 µM (active)

CC(=O)c1sc(Nc2ccc(Oc3ccccc3)cc2)nc1C
IC50 (cells [14]): > 67.6 µM (inactive) | IC50 [15]: > 67.6 µM (inactive)

CCCc1nc(SCC(=O)NNC(=O)c2ccc(OC)cc2)c2ccccc2n1
IC50 (Major prion protein): 1.52 µM (active) | IC50 (cells [16]): > 138 µM (inactive)

O=c1c(CO)cc(CO)cc(CO)c1O
IC50 (Albumin): > 94 µM (inactive) | AC50 (Caspase-6): 2.22 µM (active) | AC50 (Caspase-7): > 70 µM (inactive)

Cc1cnc(NC(=O)C2CC(=O)N(c3cccc(Cl)c3)C2)s1 (stereo unspecified)
IC50 [6]: 0.0757 µM (active) | AC50 (A549): 14.8 µM (active) | AC50 [17]: 4.65 µM (active) | AC50 [18]: 0.763 µM (active) | AC50 [19]: 4.8 µM (active) | AC50 [20]: 5.08 µM (active) | AC50 [21]: > 52 µM (inactive)

COc1cc(C)c(NC(=O)C(S)=NCCc2ccccc2)cc1C
IC50 (cells [22]): > 29.9 µM (inactive) | EC50 [23]: 0.766 µM (active) | IC50 [24]: 2.38 µM (active) | EC50 (cells [25]): > 29.9 µM (inactive)

Source: ChEMBL document CHEMBL1201862, “PubChem BioAssay data set” (2004)
